Experimental data taken from patent publication US11596620B2, “Formulations with reduced oxidation” (Genentech, Inc., priority 2013, dated 2023).

Tested on: mAb1
Test: mAb1 Fenton stress study (H2O2 + Fe), RP-HPLC
Type: physicochemical, human
Conditions: 10 ppm H2O2 and 0.2 mM Fe(III), 40° C. for 3 hours; antioxidant 1 mM
Procedure: Antioxidants were added at a final concentration of 1 mM. […] After incubation, each reaction was quenched by addition of 100 mM L-Met and then prepared for analysis by reverse-phase HPLC as described above.
The Fenton reaction, using a mixture of H2O2 and Fe ions, generates oxidation through a metal catalyzed, hydroxyl radical reaction (Prousek et al., Pure and Applied Chemistry 79(12):2325-2338 (2007)). This reaction generated Fab, i.e. tryptophan, oxidation in mAb1. The reaction was also carried out in the presence of select antioxidants that were useful against both AAPH and light induced oxidation as reported above. Data related to the antioxidant properties against Fenton mediated reaction were analyzed using the RP-HPLC assay as described above. The Fenton reaction used 10 ppm of H2O2 and 0.2 mM of Fe(III). The reaction was incubated at 40° C. for 3 hours, quenched with 100 mM L-Met and analyzed using RP-HPLC after papain digest. All samples were the average of three separate vials, and mAb1 control (Ref Mat) was one vial with five independent injections on the HPLC. […] In regards to protection against Fc oxidation, the tested excipients (other than salicylic acid) performed slightly better than L-Trp.

Compound: N[C@@H](Cc1c[nH]c2ccccc12)C(=O)O [L-Trp, L-tryptophan]
- Protection of Fab oxidation with respect to the no excipient case: about 25%
